Measurements taken from US11945798B2, “Substituted aminopyridine compounds as EGFR inhibitors” (YUHAN CORPORATION, priority 2021, dated 2024).
Read-outs that look alike come from different tables or passages of the source.

Key:
EGFR L858R/T790M/C797S = EGFR L858R/T790M/C797S (Homo sapiens, UniProt P00533, C797S/L858R/T790M); test: Biochemical EGFR kinase assay (Lance Ultra TR-FRET), L858R/T790M/C797S
Protocol: (§1) Biochemical EGFR kinase assays were conducted using Lance Ultra time-resolved fluorescence resonance energy transfer (TR-FRET) technology from Perkin-Elmer. Compounds of the invention were initially diluted to 20 mM in 100% DMSO for storage and made into kinase buffer solution to create a compound concentration ranging from 0.003 μM and 10 μM.
(§2) Each kinase reactions were incubated at room temperature for 1 hour and then stopped by the addition of 4 μL of stop solution (10 mM EDTA). The specific Europium-labeled-anti-phosphopeptide antibody (PerkinElmer, AD0069) diluted in LANCE detection buffer was then added to a final concentration of 2 nM. After 60 minutes incubation at room temperature the LANCE signal was measured on an EnVision Multilabel Reader (Perkin-Elmer). Excitation wavelength was set at 320 nm and emission monitored at 615 nm (donor) and 665 nm (acceptor). The IC50 values were determined using GraphPad prism software (GraphPad Software, Inc., San Diego, CA, USA).

EGFR del19/T790M/C797S = EGFR del19/T790M/C797S (Homo sapiens, UniProt P00533, C797S/DEL746-750/T790M); test: Biochemical EGFR kinase assay (Lance Ultra TR-FRET), del19/T790M/C797S
Protocol: as §1, §2

EGFR del19/C797S = EGFR del19/C797S (Homo sapiens, UniProt P00533, C797S/DEL746-750); test: Biochemical EGFR kinase assay (Lance Ultra TR-FRET), del19/C797S
Protocol: as §1, §2

EGFR wildtype (WT) = EGFR wildtype (WT) (Homo sapiens, UniProt P00533); test: Biochemical EGFR kinase assay (Lance Ultra TR-FRET), wildtype
Protocol: as §1, §2

EGFR L858R/C797S = EGFR L858R/C797S (Homo sapiens, UniProt P00533, C797S/L858R); test: Biochemical EGFR kinase assay (Lance Ultra TR-FRET), L858R/C797S
Protocol: as §1, §2

[1] = Km ATP, read-out: IC50 L858R/T790M/C797S (nM) Km ATP
[2] = Km ATP, read-out: IC50 del19/T790M/C797S (nM) Km ATP
[3] = Km ATP, read-out: IC50 del19/C797S (nM) Km ATP
[4] = Km ATP, read-out: IC50 WT (nM) Km ATP
[5] = Km ATP, read-out: IC50 L858R/C797S (nM) Km ATP
[6] = IC50 L858R/T790M/C797S (nM) 100 μM ATP, 100 μM ATP
[7] = IC50 del19/T790M/C797S (nM) 100 μM ATP, 100 μM ATP
[8] = IC50 del19/C797S (nM) 100 μM ATP, 100 μM ATP
[9] = IC50 WT (nM) 100 μM ATP, 100 μM ATP
[10] = IC50 L858R/C797S (nM) 100 μM ATP, 100 μM ATP

Chain of EGFR del19/C797S (P00533 with tags, fused parts or gaps DEL746-750/C797S): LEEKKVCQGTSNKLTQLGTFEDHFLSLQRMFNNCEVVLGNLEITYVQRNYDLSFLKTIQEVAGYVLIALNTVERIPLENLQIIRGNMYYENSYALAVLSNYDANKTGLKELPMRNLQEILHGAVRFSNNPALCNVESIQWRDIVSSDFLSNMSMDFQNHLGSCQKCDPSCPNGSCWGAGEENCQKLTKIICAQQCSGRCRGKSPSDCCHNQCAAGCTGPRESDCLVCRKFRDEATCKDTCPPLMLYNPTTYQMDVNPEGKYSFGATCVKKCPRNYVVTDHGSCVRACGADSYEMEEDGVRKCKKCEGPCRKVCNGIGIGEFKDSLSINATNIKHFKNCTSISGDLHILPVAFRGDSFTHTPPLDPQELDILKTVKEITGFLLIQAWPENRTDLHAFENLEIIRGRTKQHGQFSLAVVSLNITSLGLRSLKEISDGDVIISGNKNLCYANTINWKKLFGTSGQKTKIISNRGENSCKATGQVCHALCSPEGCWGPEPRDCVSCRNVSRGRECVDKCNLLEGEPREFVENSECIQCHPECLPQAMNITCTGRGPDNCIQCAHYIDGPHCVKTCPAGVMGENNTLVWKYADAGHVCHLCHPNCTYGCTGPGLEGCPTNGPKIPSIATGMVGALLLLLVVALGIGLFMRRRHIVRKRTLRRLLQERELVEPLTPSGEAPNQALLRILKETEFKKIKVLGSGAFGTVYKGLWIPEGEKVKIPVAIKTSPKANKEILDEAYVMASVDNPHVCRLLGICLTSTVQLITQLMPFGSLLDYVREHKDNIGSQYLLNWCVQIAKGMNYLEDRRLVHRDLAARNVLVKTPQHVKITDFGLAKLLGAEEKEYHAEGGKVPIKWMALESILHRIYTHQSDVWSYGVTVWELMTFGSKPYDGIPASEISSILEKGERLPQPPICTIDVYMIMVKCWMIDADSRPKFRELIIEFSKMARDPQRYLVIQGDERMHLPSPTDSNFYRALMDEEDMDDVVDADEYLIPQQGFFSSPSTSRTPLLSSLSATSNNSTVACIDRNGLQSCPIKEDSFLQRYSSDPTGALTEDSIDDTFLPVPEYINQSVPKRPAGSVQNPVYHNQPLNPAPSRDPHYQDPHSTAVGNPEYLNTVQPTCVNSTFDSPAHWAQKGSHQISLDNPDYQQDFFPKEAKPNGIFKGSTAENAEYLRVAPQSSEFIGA
Chain of EGFR del19/T790M/C797S (P00533 with tags, fused parts or gaps DEL746-750/T790M/C797S): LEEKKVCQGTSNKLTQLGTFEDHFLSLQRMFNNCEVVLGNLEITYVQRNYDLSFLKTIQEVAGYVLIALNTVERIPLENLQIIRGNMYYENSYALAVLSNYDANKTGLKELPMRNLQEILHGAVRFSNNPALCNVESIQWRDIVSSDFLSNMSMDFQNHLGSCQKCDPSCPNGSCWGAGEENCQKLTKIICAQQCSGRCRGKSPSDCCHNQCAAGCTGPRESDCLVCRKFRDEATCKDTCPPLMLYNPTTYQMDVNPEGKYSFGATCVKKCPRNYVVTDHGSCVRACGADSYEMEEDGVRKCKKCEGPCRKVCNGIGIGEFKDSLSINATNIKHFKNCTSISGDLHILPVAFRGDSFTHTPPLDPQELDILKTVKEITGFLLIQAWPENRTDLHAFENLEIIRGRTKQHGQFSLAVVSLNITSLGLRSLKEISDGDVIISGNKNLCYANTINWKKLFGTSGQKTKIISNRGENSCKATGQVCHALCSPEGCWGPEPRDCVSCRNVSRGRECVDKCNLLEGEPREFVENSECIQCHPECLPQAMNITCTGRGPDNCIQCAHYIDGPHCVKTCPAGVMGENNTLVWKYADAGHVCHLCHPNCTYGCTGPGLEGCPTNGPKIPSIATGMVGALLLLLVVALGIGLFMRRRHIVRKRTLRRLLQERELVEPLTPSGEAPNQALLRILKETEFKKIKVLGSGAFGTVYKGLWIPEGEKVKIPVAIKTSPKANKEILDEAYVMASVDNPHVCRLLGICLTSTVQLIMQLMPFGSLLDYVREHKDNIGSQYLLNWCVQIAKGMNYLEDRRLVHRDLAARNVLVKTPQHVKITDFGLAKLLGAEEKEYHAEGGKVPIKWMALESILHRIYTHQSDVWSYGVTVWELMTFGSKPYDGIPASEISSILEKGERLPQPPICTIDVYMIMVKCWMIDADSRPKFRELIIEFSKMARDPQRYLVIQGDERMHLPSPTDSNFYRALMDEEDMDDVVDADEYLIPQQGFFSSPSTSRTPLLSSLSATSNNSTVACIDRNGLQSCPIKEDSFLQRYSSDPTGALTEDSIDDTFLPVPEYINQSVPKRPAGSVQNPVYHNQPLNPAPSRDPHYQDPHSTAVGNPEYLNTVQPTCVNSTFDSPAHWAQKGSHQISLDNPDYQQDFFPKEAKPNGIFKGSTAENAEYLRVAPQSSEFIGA
Chain of EGFR wildtype (WT) (P00533 25-1210): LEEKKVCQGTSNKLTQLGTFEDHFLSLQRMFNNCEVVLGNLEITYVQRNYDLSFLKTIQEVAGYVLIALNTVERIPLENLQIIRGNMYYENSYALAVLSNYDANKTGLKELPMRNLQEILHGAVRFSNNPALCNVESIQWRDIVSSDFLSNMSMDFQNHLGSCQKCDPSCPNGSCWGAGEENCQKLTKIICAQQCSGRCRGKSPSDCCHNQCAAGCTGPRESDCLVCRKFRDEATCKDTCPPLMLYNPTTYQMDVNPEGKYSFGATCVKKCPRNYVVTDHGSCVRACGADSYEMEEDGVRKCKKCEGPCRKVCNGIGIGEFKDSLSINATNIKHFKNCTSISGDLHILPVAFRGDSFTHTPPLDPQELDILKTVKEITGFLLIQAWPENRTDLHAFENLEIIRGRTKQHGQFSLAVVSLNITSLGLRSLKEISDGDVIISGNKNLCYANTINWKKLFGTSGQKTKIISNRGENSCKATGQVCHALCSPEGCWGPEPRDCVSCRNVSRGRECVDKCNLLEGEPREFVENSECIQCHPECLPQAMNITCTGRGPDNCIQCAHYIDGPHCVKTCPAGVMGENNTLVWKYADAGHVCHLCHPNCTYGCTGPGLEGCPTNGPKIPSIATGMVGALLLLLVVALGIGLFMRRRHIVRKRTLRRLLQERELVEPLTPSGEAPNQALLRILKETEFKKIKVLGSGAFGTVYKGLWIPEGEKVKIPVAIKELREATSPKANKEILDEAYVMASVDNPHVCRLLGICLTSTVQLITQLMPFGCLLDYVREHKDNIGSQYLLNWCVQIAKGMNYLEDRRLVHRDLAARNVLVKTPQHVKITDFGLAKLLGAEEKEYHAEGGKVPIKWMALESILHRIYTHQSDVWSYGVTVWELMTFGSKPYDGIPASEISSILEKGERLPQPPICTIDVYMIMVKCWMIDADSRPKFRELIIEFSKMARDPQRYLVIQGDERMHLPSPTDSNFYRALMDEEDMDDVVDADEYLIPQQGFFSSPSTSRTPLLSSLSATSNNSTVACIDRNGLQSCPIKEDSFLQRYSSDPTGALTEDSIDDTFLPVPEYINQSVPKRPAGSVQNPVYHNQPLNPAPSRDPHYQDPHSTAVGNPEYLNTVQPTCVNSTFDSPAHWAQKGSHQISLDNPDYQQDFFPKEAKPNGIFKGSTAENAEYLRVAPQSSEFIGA
Chain of EGFR L858R/C797S (P00533 25-1210 C797S/L858R): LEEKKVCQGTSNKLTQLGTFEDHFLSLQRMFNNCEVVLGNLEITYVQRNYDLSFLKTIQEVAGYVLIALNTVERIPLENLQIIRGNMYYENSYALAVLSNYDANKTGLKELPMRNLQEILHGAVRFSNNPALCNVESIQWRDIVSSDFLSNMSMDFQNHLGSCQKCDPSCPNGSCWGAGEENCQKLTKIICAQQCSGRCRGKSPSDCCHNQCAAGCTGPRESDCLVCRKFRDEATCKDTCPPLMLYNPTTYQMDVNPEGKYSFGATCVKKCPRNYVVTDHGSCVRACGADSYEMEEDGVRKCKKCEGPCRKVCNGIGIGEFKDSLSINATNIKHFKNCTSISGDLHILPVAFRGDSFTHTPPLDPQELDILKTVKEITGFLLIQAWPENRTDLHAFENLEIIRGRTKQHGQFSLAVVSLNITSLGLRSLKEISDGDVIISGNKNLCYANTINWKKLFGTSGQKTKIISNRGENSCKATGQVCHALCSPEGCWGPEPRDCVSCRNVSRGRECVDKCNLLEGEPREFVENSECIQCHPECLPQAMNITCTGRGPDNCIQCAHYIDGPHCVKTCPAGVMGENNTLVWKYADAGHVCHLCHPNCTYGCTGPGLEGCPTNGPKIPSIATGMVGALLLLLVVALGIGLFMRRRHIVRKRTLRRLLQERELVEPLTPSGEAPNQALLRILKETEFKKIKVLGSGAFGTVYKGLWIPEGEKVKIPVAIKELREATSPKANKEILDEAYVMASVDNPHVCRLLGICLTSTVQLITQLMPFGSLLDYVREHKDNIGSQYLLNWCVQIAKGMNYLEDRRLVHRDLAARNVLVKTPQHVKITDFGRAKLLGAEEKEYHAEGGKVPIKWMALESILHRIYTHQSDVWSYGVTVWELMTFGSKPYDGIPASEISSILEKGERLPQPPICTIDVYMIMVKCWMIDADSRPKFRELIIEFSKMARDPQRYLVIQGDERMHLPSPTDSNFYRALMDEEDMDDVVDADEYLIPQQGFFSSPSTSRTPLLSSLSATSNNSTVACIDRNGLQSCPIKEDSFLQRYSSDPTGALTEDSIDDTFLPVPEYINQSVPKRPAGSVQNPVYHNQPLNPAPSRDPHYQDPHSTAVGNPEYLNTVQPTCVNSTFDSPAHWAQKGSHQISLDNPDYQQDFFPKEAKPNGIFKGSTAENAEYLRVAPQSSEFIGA

Compound	IC50 (EGFR L858R/T790M/C797S; [1]) [nM]	IC50 (EGFR del19/T790M/C797S; [2]) [nM]	IC50 (EGFR del19/C797S; [3]) [nM]	IC50 (EGFR wildtype (WT); [4]) [nM]	IC50 (EGFR L858R/C797S; [5]) [nM]	IC50 (EGFR L858R/T790M/C797S; [6]) [nM]	IC50 (EGFR del19/T790M/C797S; [7]) [nM]	IC50 (EGFR del19/C797S; [8]) [nM]	IC50 (EGFR wildtype (WT); [9]) [nM]	IC50 (EGFR L858R/C797S; [10]) [nM]
CN(C)Cc1ccc(CNc2cc(Nc3ccnc(-c4cnn(S(=O)(=O)C5CC5)c4)n3)ncc2C(=O)C2CC2)s1 [Example 20, Cyclopropyl(6-((2-(1-(cyclopropylsulfonyl)-1H-pyrazol-4-yl)pyrimidin-4-yl)amino)-4-(((5-((dimethylamino)methyl)thiophen-2-yl)methyl)amino)pyridin-3-yl)methanone]	3.9	2.2	415	239	59.2	–	–	–	–	–
C[C@]1(O)CC[C@@H](Nc2cc(Nc3ccnc(-c4cnn(S(=O)(=O)C5CC5)c4)n3)ncc2C(=O)NCCF)CC1 [Example 76, 6-((2-(1-(Cyclopropylsulfonyl)-1H-pyrazol-4-yl)pyrimidin-4-yl)amino)-N-(2-fluoroethyl)-4-(((1s,4s)-4-hydroxy-4-methylcyclohexyl)amino)nicotinamide]	0.1	0.2	0.9	12	2.7	0.7	0.6	2.3	> 10000	28.9
CC(=O)NC[C@H]1CC[C@H](CNc2cc(Nc3ccnc(-c4cnn(S(=O)(=O)C5CC5)c4)n3)ncc2C(=O)C2CC2)CC1 [Example 68, N-(((1r,4r)-4-(((5-(Cyclopropanecarbonyl)-2-((2-(1-(cyclopropylsulfonyl)-1H-pyrazol-4-yl)pyrimidin-4-yl)amino)pyridin-4-yl)amino)methyl)cyclohexyl)methyl)acetamide]	0.5	1	1	14.9	11.8	–	–	–	–	–
CC(C)(CO)CNc1cc(Nc2ccnc(-c3cnn(S(=O)(=O)C4CC4)c3)n2)ncc1C(=O)C1CC1 [Example 28, Cyclopropyl(6-((2-(1-(cyclopropylsulfonyl)-1H-pyrazol-4-yl)pyrimidin-4-yl)amino)-4-((3-hydroxy-2,2-dimethylpropyl)amino)pyridin-3-yl)methanone]	–	–	–	–	–	32.1	2.6	176	> 10000	234
O=C(c1cnc(Nc2ccnc(-c3cnn(S(=O)(=O)C4CC4)c3)n2)cc1N[C@H]1CCC[C@H](O)C1)C1CC1 [Example 22, Cyclopropyl(6-((2-(1-(cyclopropylsulfonyl)-1H-pyrazol-4-yl)pyrimidin-4-yl)amino)-4-(((1S,3S)-3-hydroxycyclohexyl)amino)pyridin-3-yl)methanone]	–	–	–	–	–	1.1	0.9	14	> 10000	33.2
O=C(c1cnc(Nc2ccnc(-c3cnn(S(=O)(=O)C4CC4)c3)n2)cc1NC1CC[C@@H](O)[C@@H](O)C1)C1CC1 (stereo partly drawn) [Example 36, Cyclopropyl(6-((2-(1-(cyclopropylsulfonyl)-1H-pyrazol-4-yl)pyrimidin-4-yl)amino)-4-(((3S,4R)-3,4-dihydroxycyclohexyl)amino)pyridin-3-yl)methanone]	–	–	–	–	–	0.9	0.5	5.4	> 10000	15.5
O=C(c1cnc(Nc2ccnc(-c3cnn(S(=O)(=O)C4CC4)c3)n2)cc1N[C@H]1CC[C@@H](O)CC1)C1CC1 [Example 23, Cyclopropyl(6-((2-(1-(cyclopropylsulfonyl)-1H-pyrazol-4-yl)pyrimidin-4-yl)amino)-4-(((1s,4s)-4-hydroxycyclohexyl)amino)pyridin-3-yl)methanone]	–	–	–	–	–	0.5	0.7	2.4	3410	6.4
O=C(c1cnc(Nc2ccnc(-c3cnn(S(=O)(=O)C4CC4)c3)n2)cc1NC1CCCOC1)C1CC1 (stereo not drawn) [Example 34, Cyclopropyl(6-((2-(1-(cyclopropylsulfonyl)-1H-pyrazol-4-yl)pyrimidin-4-yl)amino)-4-((tetrahydro-2H-pyran-3-yl)amino)pyridin-3-yl)methanone]	–	–	–	–	–	5.3	2	124	> 10000	398
O=C(c1cnc(Nc2ccnc(-c3cnn(S(=O)(=O)C4CC4)c3)n2)cc1NC[C@H]1CC[C@H](CNC2CCCC2)CC1)C1CC1 [Example 70, (4-((((1r,4r)-4-((Cyclopentylamino)methyl)cyclohexyl)methyl)amino)-6-((2-(1-(cyclopropylsulfonyl)-1H-pyrazol-4-yl)pyrimidin-4-yl)amino)pyridin-3-yl)(cyclopropyl)methanone]	0.4	0.3	2.7	24.2	14.4	–	–	–	–	–
O=C(c1cnc(Nc2ccnc(-c3cnn(S(=O)(=O)C4CC4)c3)n2)cc1NC1CCCN(CCF)C1)C1CC1 (stereo not drawn) [Example 39, Cyclopropyl(6-((2-(1-(cyclopropylsulfonyl)-1H-pyrazol-4-yl)pyrimidin-4-yl)amino)-4-((1-(2-fluoroethyl)piperidin-3-yl)amino)pyridin-3-yl)methanone]	1.9	2.9	38.4	470	19	5.2	3.8	38.8	> 10000	451
CC(=O)c1cnc(Nc2ccnc(-c3cnn(S(=O)(=O)C4CC4)c3)n2)cc1NC1CCC(CO)C1 (stereo not drawn) [Example 47, 1-(6-((2-(1-Cyclopropylsulfonylpyrazol-4-yl)pyrimidin-4-yl)amino)-4-((3-(hydroxymethyl)cyclopentyl)amino)-3-pyridyl)ethanone]	0.6	0.1	10.5	145	51.3	–	–	–	–	–
O=C(c1cnc(Nc2ccnc(-c3cnn(S(=O)(=O)C4CC4)c3)n2)cc1N[C@H]1CC[C@@H](CO)CC1)C(F)F [Example 49, 1-(6-((2-(1-(Cyclopropylsulfonyl)-1H-pyrazol-4-yl)pyrimidin-4-yl)amino)-4-(((1s,4s)-4-(hydroxymethyl)cyclohexyl)amino)pyridin-3-yl)-2,2-difluoroethan-1-one]	0.2	0.4	2.6	181	4	0.7	0.4	1.2	> 10000	21.1
O=C(c1cnc(Nc2ccnc(-c3cnn(S(=O)(=O)C4CC4)c3)n2)cc1NC1CCN(C2COC2)CC1)C1CC1 [Example 38, Cyclopropyl(6-((2-(1-(cyclopropylsulfonyl)-1H-pyrazol-4-yl)pyrimidin-4-yl)amino)-4-((1-(oxetan-3-yl)piperidin-4-yl)amino)pyridin-3-yl)methanone]	–	–	–	–	–	9.9	2.7	231	> 10000	200
CN(C)C[C@H]1CC[C@H](COc2cc(Nc3ccnc(-c4cnn(S(=O)(=O)C5CC5)c4)n3)ncc2C(=O)C2CC2)CC1 [Example 66, Cyclopropyl(6-((2-(1-(cyclopropylsulfonyl)-1H-pyrazol-4-yl)pyrimidin-4-yl)amino)-4-(((1r,4r)-4-((dimethylamino)methyl)cyclohexyl)methoxy)pyridin-3-yl)methanone]	0.4	0.1	11.1	148	101	–	–	–	–	–
C[C@]1(O)CC[C@@H](Nc2cc(Nc3ccnc(-c4cnn(S(=O)(=O)C5CC5)c4)n3)ncc2C(=O)CC2CCOCC2)CC1 [Example 40, 1-(6-((2-(1-(Cyclopropylsulfonyl)-1H-pyrazol-4-yl)pyrimidin-4-yl)amino)-4-(((1s,4s)-4-hydroxy-4-methylcyclohexyl)amino)pyridin-3-yl)-2-(tetrahydro-2H-pyran-4-yl)ethan-1-one]	0.2	0.4	3.1	64.5	5.1	–	0.6	16.3	> 10000	189
O=C(c1cnc(Nc2ccnc(-c3cnn(S(=O)(=O)C4CC4)c3)n2)cc1N[C@@H]1CC[C@@H](O)C1)C1CC1 [Example 26, Cyclopropyl(6-((2-(1-(cyclopropylsulfonyl)-1H-pyrazol-4-yl)pyrimidin-4-yl)amino)-4-(((1R,3R)-3-hydroxycyclopentyl)amino)pyridin-3-yl)methanone]	–	–	–	–	–	3.3	2.9	55.3	> 10000	118
